Laboratory results: patent US3966944A, “10 (N-methyl-4-piperidylidene)-10H[1]-benzopyrano[3,2-b]-pyridine as an analgesic, anti-inflammatory and agent against type III hypersensitivity disease” (Abbott Laboratories, priority 1975, dated 1976)

Legend:
[1] = tested on: Carrageenin Induced Rat Paw Edema; experiment: Carrageenin Induced Rat Paw Edema; assay type: in vivo, male Sprague-Dawley rats; conditions: for % INCREASE IN PAW SIZE OVER NORMAL: 3 hr. reading, 0.5% MC control 89.3%
Protocol: Carrageenin Induced Rat Paw Edema
The carrageenin induced rat paw edema test of Winter, et al. (Proc. Soc. Exp. Biol. and Med., 1962, 111:544) and modified by Van Arman, et al. (J. Pharmacol. Exp. Therap., 1965, 150:328) is used as a primary test for anti-inflammatory activity.
Groups of male Sprague-Dawley rats weighing 160-220 grams are used to compare various dose levels of the test compound to control animals. The compound is administered orally to the respective groups 1 hour prior to a sub-plantar injection into the left hind paw with 0.1 ml of a 1.5% suspension of carrageenin in saline. The paws are measured volumetrically by mercury displacement prior to (normal paw), 1.5, 3 and 5 hours after the carrageenin injection.
Activity is calculated as the percent difference (inhibition) between the increases in paw size (edema) of the test groups compared to the control groups.

mice = experiment: Analgesic Activity - Mouse Writhing Method (0.5% acetic acid IP); assay type: in vivo; conditions: for Ave. No. of Writhes/Mouse (±S.D.): 20 minute period, control saline 34.8 (8.8)
Protocol: Analgesic Activity of 10 (N-Methyl-4-Piperidylidene)-10H[1]-Benzopyrano[3,2-b]-Pyridine -- Mouse Writhing Method
Modified method of Whittle (Brit. J. Pharmacol. 1964, 22:246) -- Groups of 5 mice administered various dose-levels of the compound 30 minutes prior to the IP injection of 0.5% acetic acid (0.4 ml). Writhing counted for a 20 minute period following the acid injection.

[2] = tested on: reverse passive Arthus reaction; experiment: Reverse Passive Arthus Reaction (inhibition of the inflammatory lesion area); conditions: for % Inhibition of the Inflammatory Lesion Area: lesion excised 4 hours after Anti-B.S.A.

## 10 (N-methyl-4-piperidylidene)-10H[1]-benzopyrano[3,2-b]-pyridine [A-45637]
[1]; 2 mg/kg oral
  % INCREASE IN PAW SIZE OVER NORMAL: 66.9%
[1]; 2 mg/kg oral, rat
  % INHIBITION OF EDEMA (3 HR. READING): 25.1%
[1]; 4 mg/kg oral
  % INCREASE IN PAW SIZE OVER NORMAL: 55.3%
[1]; 4 mg/kg oral, rat
  % INHIBITION OF EDEMA (3 HR. READING): 38.1%
[1]; 8 mg/kg oral
  % INCREASE IN PAW SIZE OVER NORMAL: 50.0%
[1]; 8 mg/kg oral, rat
  % INHIBITION OF EDEMA (3 HR. READING): 44.0%
[1]; 16 mg/kg oral
  % INCREASE IN PAW SIZE OVER NORMAL: 33.1%
[1]; 16 mg/kg oral, rat
  % INHIBITION OF EDEMA (3 HR. READING): 62.9%
[1]; oral, rat, carrageenin paw edema, limits in parentheses
  ED25: 2.04 (0.34, 3.55)
mice; 10 mg/kg oral
  Ave. No. of Writhes/Mouse (±S.D.): 31.4 (16.7) Writhes/Mouse
mice; 10 mg/kg oral, writhing, mice
  % Inhibition: 9.8%
mice; 20 mg/kg oral
  Ave. No. of Writhes/Mouse (±S.D.): 18.0 (8.3) Writhes/Mouse
mice; 20 mg/kg oral, writhing, mice
  % Inhibition: 48.3%
mice; 40 mg/kg oral
  Ave. No. of Writhes/Mouse (±S.D.): 15.8 (8.0) Writhes/Mouse
mice; 40 mg/kg oral, writhing, mice
  % Inhibition: 54.6%
mice; 80 mg/kg oral
  Ave. No. of Writhes/Mouse (±S.D.): 6.6 (4.6) Writhes/Mouse
mice; 80 mg/kg oral, writhing, mice
  % Inhibition: 81.0%
mice; P.O., mice, writhing, 95% CL (10.9-98.0)
  ED50: 29.7 mg/kg
[2]; 0.75 mg/kg PO, rat
  % Inhibition of the Inflammatory Lesion Area: 43.2%
[2]; 1.5 mg/kg PO, rat
  % Inhibition of the Inflammatory Lesion Area: 64.4%
[2]; 2.5 mg/kg PO, rat
  % Inhibition of the Inflammatory Lesion Area: 70.9%
[2]; 5 mg/kg PO, rat
  % Inhibition of the Inflammatory Lesion Area: 81.2%
[2]; 10 mg/kg PO, rat
  % Inhibition of the Inflammatory Lesion Area: 82.9%
[2]; PO, rat, printed limits (.07, 1.5)
  Calculated ED50 value: 0.78 mg/kg

## CN(C)CCC(c1ccc(Cl)cc1)c1ccccn1 (racemic) [chlorpheninamine, reference compound]
[2]; 10 mg/kg, P.O.
  activity in the reverse passive Arthus reaction: completely inactive

## CN1CCC(=C2c3ccccc3C=Cc3ccccc32)CC1 [cyproheptadine, reference compound]
[2]; 5 mg/kg P.O.
  activity in the reverse passive Arthus reaction: completely inactive
